Source: publication PMC10746543, “Design principles for cyclin K molecular glue degraders” (Nature Chemical Biology, 2023)
Where “and” joins values, the source holds several entries; their conditions need not be identical. Equal entries are not always repeated. Where two headings read alike, the source gives them in different places. Values belong to the compound of their own block, whether it stands above or below them.

Legend:
CDK12–cyclin K and DDB1 = biological target: T1, CDK12–cyclin K and DDB1 (Homo sapiens, UniProt Q16531+Q9NYV4, K965R); experiment: TR-FRET ternary complex formation assay (compound titration); type: binding; conditions: for TR-FRET signal at compound concentration: replicate titrations
T1 construct: His6–CDK12 (a.a. 713–1,052); full-length or beta-propeller B domain deletion (ΔBPB: a.a. 396–705 deleted) constructs of His6–DDB1ΔBPB, StrepII–Avi–DDB1, or His6–Spy–DDB1; made in house; host or cells: Trichoplusia ni High Five insect cells (baculovirus)
Method in brief: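 Delayed (70 μs) time-resolved read; FRET computed as 520 nm over 490 nm emission.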

HEK293T cells = experiment: Drug sensitivity assay (CellTiter-Glo viability) with or without MLN4924 pretreatment; type: cell-based, human; conditions: Supplementary Table 2; for EC50: Homo sapiens, HEK-293T, HEK293T viability, 72 h, compound alone, read-out: Cellular assays EC50; for Toxicity rescue: MLN4924-mediated cytotoxicity rescue, 10 µM used where n.d.
Method in brief: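 Viability of HEK293T–Cas9 cells was compared after 3-day drug treatment with or without 100 nM MLN4924 pretreatment (2 h, versus DMSO). Values are CellTiter-Glo signals relative to DMSO controls.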

[1] = tested on: cyclin K–eGFP degradation reporter; experiment: Cyclin K reporter stability analysis (dual-color cyclin K–eGFP reporter); type: cell-based, human; conditions: Supplementary Table 2; HEK293T cycK-eGFP reporter, 5 h; read-out: Cellular assays DC50
Experimental: HEK293T–Cas9 cells expressing the cyclin K–eGFP degradation reporter were resuspended at 1 × 10^6 ml^−1 and 50 µl of cell suspension was seeded in non-cell-culture-treated 384-well plates. Shortly after, cells were treated with drug or DMSO for 5 h. […] The fluorescent signal was quantified by flow cytometry (LSRFortessa flow cytometer, BD Biosciences). Using FlowJo (flow cytometry analysis software, BD Biosciences), the geometric mean of the eGFP and mCherry fluorescent signal for round and mCherry-positive cells was calculated. The ratio of eGFP to mCherry was normalized to the average of three DMSO-treated controls.

[2] = Supplementary Table 2, read-out: TR-FRET EC50 TR-FRET
[3] = compound concentration 79.2001 nM
[4] = compound concentration 158.4 nM
[5] = compound concentration 309.6 nM
[6] = compound concentration 626.401 nM
[7] = compound concentration 1252.8 nM
[8] = compound concentration 9936.01 nM
[9] = compound concentration 20016 nM
[10] = in vitro complex formation, 50 nM CDK12–cyclin K, 100 nM DDB1, text and figures, read-out: TR-FRET EC50
[11] = compound concentration 0.468 nM
[12] = compound concentration 7.92001 nM
[13] = compound concentration 15.84 nM
[14] = compound concentration 30.96 nM
[15] = compound concentration 62.6401 nM
[16] = compound concentration 125.28 nM
[17] = compound concentration 244.8 nM
[18] = compound concentration 993.601 nM
[19] = compound concentration 2001.6 nM

T1 sequence (Q9NYV4 713-1052 K965R): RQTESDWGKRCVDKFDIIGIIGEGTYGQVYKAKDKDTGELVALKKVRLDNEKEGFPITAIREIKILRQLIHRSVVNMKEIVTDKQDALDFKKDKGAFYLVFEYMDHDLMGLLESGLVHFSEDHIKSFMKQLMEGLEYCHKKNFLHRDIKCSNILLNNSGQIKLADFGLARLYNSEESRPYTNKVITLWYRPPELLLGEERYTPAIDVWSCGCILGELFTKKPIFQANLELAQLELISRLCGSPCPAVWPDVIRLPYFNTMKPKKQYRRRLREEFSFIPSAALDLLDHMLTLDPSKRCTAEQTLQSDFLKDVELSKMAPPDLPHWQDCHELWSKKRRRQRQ
T1 sequence (O75909 1-267 partner): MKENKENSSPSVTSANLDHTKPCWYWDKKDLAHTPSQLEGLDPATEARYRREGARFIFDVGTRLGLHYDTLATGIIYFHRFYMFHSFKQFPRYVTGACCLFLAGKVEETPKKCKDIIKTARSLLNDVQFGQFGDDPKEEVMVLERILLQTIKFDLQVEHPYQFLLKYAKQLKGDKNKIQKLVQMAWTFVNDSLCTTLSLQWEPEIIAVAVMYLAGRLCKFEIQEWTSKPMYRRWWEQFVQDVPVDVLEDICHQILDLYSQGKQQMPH
T1 sequence (Q16531 whole entry): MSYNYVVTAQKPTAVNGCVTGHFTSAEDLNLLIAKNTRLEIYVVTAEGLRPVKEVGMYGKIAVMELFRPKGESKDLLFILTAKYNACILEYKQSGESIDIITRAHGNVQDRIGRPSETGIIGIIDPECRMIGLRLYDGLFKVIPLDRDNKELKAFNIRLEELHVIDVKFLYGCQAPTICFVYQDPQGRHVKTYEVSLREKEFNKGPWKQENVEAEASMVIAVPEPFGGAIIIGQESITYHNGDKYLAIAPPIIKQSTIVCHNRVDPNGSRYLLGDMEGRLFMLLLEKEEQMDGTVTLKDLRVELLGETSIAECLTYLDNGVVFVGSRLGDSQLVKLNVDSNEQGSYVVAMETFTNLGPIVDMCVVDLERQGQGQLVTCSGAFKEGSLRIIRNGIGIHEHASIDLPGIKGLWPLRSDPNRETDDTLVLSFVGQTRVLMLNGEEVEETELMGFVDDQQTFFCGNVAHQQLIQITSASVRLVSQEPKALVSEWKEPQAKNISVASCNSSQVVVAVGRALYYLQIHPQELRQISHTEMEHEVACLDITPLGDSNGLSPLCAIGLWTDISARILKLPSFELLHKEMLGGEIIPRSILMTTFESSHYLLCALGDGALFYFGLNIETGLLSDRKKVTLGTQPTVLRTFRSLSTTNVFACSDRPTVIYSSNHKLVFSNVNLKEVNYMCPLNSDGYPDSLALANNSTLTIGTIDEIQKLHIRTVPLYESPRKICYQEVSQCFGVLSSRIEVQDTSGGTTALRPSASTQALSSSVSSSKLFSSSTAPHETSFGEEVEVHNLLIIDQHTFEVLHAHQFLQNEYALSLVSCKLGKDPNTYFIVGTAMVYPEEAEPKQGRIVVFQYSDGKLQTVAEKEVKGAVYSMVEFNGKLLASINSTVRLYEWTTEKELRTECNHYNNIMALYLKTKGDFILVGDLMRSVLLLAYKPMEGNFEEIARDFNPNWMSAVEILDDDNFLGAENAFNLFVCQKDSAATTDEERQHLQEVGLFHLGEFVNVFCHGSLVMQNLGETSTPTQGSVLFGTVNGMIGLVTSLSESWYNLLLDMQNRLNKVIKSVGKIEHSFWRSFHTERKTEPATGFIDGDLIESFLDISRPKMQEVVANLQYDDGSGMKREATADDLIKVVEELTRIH

EC50 (CDK12–cyclin K and DDB1; [2]): 595 nM
fold lower affinity than DS11 (CDK12–cyclin K and DDB1; TR-FRET complex formation): 5-10 fold
TR-FRET signal at compound concentration (CDK12–cyclin K and DDB1; compound concentration 4.68 nM): 0.1344 and 0.1608
TR-FRET signal at compound concentration (CDK12–cyclin K and DDB1; compound concentration 21.6 nM): 0.1474 and 0.1725
TR-FRET signal at compound concentration (CDK12–cyclin K and DDB1; compound concentration 36 nM): 0.1731 and 0.2063
TR-FRET signal at compound concentration (CDK12–cyclin K and DDB1; [3]): 0.1998 and 0.2552
TR-FRET signal at compound concentration (CDK12–cyclin K and DDB1; [4]): 0.2546 and 0.3178
TR-FRET signal at compound concentration (CDK12–cyclin K and DDB1; [5]): 0.334 and 0.4076
TR-FRET signal at compound concentration (CDK12–cyclin K and DDB1; [6]): 0.4243 and 0.5117
TR-FRET signal at compound concentration (CDK12–cyclin K and DDB1; [7]): 0.5049 and 0.5958
TR-FRET signal at compound concentration (CDK12–cyclin K and DDB1; compound concentration 2448 nM): 0.6152 and 0.6779
TR-FRET signal at compound concentration (CDK12–cyclin K and DDB1; [8]): 0.7339 and 0.7716
TR-FRET signal at compound concentration (CDK12–cyclin K and DDB1; [9]): 0.6991 and 0.7616
EC50 (CDK12–cyclin K and DDB1; [10]): 595 ± 91 nM
DC50 [1]: > 10000 nM
SMILES: CC[C@H](CO)Nc1nc(NCCCCCCc2ccccc2)c2ncn(C(C)C)c2n1 [DS10]
EC50 (HEK293T cells): > 10000 nM
Toxicity rescue (HEK293T cells): 0%

EC50 (CDK12–cyclin K and DDB1; [2]): 56.8 nM
TR-FRET signal (CDK12–cyclin K and DDB1; [11]): 0.241 and 0.2489
TR-FRET signal, individual replicate (CDK12–cyclin K and DDB1; [11]): 0.241 and 0.2489
TR-FRET signal at compound concentration (CDK12–cyclin K and DDB1; [11]): 0.241 and 0.2489
TR-FRET signal (CDK12–cyclin K and DDB1; compound concentration 2.16 nM): 0.2983 and 0.2991
TR-FRET signal, individual replicate (CDK12–cyclin K and DDB1; compound concentration 2.16 nM): 0.2983 and 0.2991
TR-FRET signal at compound concentration (CDK12–cyclin K and DDB1; compound concentration 2.16 nM): 0.2983 and 0.2991
TR-FRET signal (CDK12–cyclin K and DDB1; compound concentration 3.6 nM): 0.374 and 0.3698
TR-FRET signal, individual replicate (CDK12–cyclin K and DDB1; compound concentration 3.6 nM): 0.374 and 0.3698
TR-FRET signal at compound concentration (CDK12–cyclin K and DDB1; compound concentration 3.6 nM): 0.374 and 0.3698
TR-FRET signal (CDK12–cyclin K and DDB1; [12]): 0.5495 and 0.5492
TR-FRET signal, individual replicate (CDK12–cyclin K and DDB1; [12]): 0.5495 and 0.5492
TR-FRET signal at compound concentration (CDK12–cyclin K and DDB1; [12]): 0.5495 and 0.5492
TR-FRET signal (CDK12–cyclin K and DDB1; [13]): 0.8302 and 0.8222
TR-FRET signal, individual replicate (CDK12–cyclin K and DDB1; [13]): 0.8302 and 0.8222
TR-FRET signal at compound concentration (CDK12–cyclin K and DDB1; [13]): 0.8302 and 0.8222
TR-FRET signal (CDK12–cyclin K and DDB1; [14]): 1.2679 and 1.278
TR-FRET signal, individual replicate (CDK12–cyclin K and DDB1; [14]): 1.2679 and 1.278
TR-FRET signal at compound concentration (CDK12–cyclin K and DDB1; [14]): 1.2679 and 1.278
TR-FRET signal (CDK12–cyclin K and DDB1; [15]): 1.798 and 1.8918
TR-FRET signal, individual replicate (CDK12–cyclin K and DDB1; [15]): 1.798 and 1.8918
TR-FRET signal at compound concentration (CDK12–cyclin K and DDB1; [15]): 1.798 and 1.8918
TR-FRET signal (CDK12–cyclin K and DDB1; [16]): 2.382 and 2.496
TR-FRET signal, individual replicate (CDK12–cyclin K and DDB1; [16]): 2.382 and 2.496
TR-FRET signal at compound concentration (CDK12–cyclin K and DDB1; [16]): 2.382 and 2.496
TR-FRET signal (CDK12–cyclin K and DDB1; [17]): 2.742 and 2.9079
TR-FRET signal, individual replicate (CDK12–cyclin K and DDB1; [17]): 2.742 and 2.9079
TR-FRET signal at compound concentration (CDK12–cyclin K and DDB1; [17]): 2.742 and 2.9079
TR-FRET signal (CDK12–cyclin K and DDB1; [18]): 3.1224 and 3.3313
TR-FRET signal, individual replicate (CDK12–cyclin K and DDB1; [18]): 3.1224 and 3.3313
TR-FRET signal at compound concentration (CDK12–cyclin K and DDB1; [18]): 3.1224 and 3.3313
TR-FRET signal (CDK12–cyclin K and DDB1; [19]): 3.176 and 3.283
TR-FRET signal, individual replicate (CDK12–cyclin K and DDB1; [19]): 3.176 and 3.283
TR-FRET signal at compound concentration (CDK12–cyclin K and DDB1; [19]): 3.176 and 3.283
EC50 (CDK12–cyclin K and DDB1; [10]): 57 ± 3 nM
EC50 (CDK12–cyclin K and DDB1; sheet MOESM7, read-out: log TR-FRET EC50 (converted)): 56.8 nM
DC50 [1]: > 10000 nM
SMILES: CC[C@H](CO)Nc1nc(NCCCc2ccccc2)c2ncn(C(C)C)c2n1 [DS11]
EC50 (HEK293T cells): > 10000 nM
Toxicity rescue (HEK293T cells): 0%

EC50 (CDK12–cyclin K and DDB1; [2]): 774 nM
TR-FRET signal, individual replicate (CDK12–cyclin K and DDB1; compound concentration 4.68 nM): 0.1383 and 0.1554
TR-FRET signal, individual replicate (CDK12–cyclin K and DDB1; compound concentration 21.6 nM): 0.1534 and 0.1726
TR-FRET signal, individual replicate (CDK12–cyclin K and DDB1; compound concentration 36 nM): 0.171 and 0.1959
TR-FRET signal, individual replicate (CDK12–cyclin K and DDB1; [3]): 0.2152 and 0.2381
TR-FRET signal, individual replicate (CDK12–cyclin K and DDB1; [4]): 0.2801 and 0.3063
TR-FRET signal, individual replicate (CDK12–cyclin K and DDB1; [5]): 0.3618 and 0.4127
TR-FRET signal, individual replicate (CDK12–cyclin K and DDB1; [6]): 0.3596 and 0.5492
TR-FRET signal, individual replicate (CDK12–cyclin K and DDB1; [7]): 0.6021 and 0.6861
TR-FRET signal, individual replicate (CDK12–cyclin K and DDB1; compound concentration 2448 nM): 0.7207 and 0.8094
TR-FRET signal, individual replicate (CDK12–cyclin K and DDB1; [8]): 0.7638 and 0.9453
TR-FRET signal, individual replicate (CDK12–cyclin K and DDB1; [9]): 0.8451 and 0.9714
DC50 [1]: > 10000 nM
SMILES: CC[C@H](CO)Nc1nc(NCC2CCCCC2)c2ncn(C(C)C)c2n1 [DS12]
EC50 (HEK293T cells): > 10000 nM
Toxicity rescue (HEK293T cells): 0%
